Patent US12226418B2, “Dosing regimen for the treatment of PI3K related disorders” (Incyte Corporation, priority 2018, dated 2025)
Values belong to the compound of their own block, whether it stands above or below them.

Tests used:
[1] = tested on: Pfeiffer cell line (diffuse large B cell lymphoma); test: Pfeiffer cell proliferation assay; assay type: cell-based, human; conditions: for IC50: Homo sapiens, Pfeiffer, [3H]-thymidine incorporation
Experimental: Pfeiffer cell line (diffuse large B cell lymphoma) are purchased from ATCC (Manassas, VA) and maintained in the culture medium recommended (RPMI and 10% FBS). To measure the anti-proliferation activity of the compounds, the Pfeiffer cells are plated with the culture medium (2×10^3 cells/well/per 200 μl) into 96-well ultra-low binding plates (Corning, Corning, NY), in the presence or absence of a concentration range of test compounds. After 3-4 days, [^3H]-thymidine (1 μCi/well) (PerkinElmer, Boston, MA) in PBS is then added to the cell culture for an additional 12 hours before the incorporated radioactivity is separated by filtration with water through GF/B filters (Packard Bioscience, Meridenj, CT) and measured by liquid scintillation counting with a TopCount (Packard Bioscience).

[2] = tested on: phosphorylated AKT (pAKT; Ser473) in SU-DHL cells; test: Ex vivo phosphorylated AKT (pAKT) pharmacodynamic assay in patient whole blood; assay type: cell-based, human; conditions: all Compound 1C doses, up to 6 hours post-dose
Experimental: Compound 1C was dosed once daily and levels of phosphorylated AKT (pAKT; Ser473) were measured by flow cytometry in SU-DHL cells added to patient whole blood after Compound 1C treatment on day 15 of cycle 1.
(§1) Exploratory endpoints included: duration of response (DOR, duration of time from first response to death or disease progression, whichever occurred first); progression free survival (PFS, duration of time from first study dose to death or disease progression, whichever occurred first); population PK; pharmacodynamic (PD) relationship between PI3Kδ inhibition (as determined by an ex vivo phosphorylated AKT [pAKT] assay).

[3] = Clinical pharmacokinetics and food effect, Compound 1C monotherapy; assay type: in vivo
Experimental: Patients were assessed on Days 1, 8, and 15 of Cycle 1 and Day 1 (±3) of each subsequent treatment cycle.

[4] = tested on: relapsed or refractory B-cell malignancies; test: Efficacy, Compound 1C monotherapy; assay type: in vivo, human; conditions: for durable response: included QW dosing
Experimental: The secondary endpoints were efficacy and PK. Efficacy was measured by best overall response rate (ORR), defined as the proportion of patients achieving a partial response (PR) or complete response (CR). Response was evaluated (per investigator's assessment) every 9 weeks based on the Lugano classification of lymphoma response criteria for HL and NHL (Cheson B. D. et al, Journal of Clinical Oncology, 2014; 32(27):3059-3067), the International Working Group on Chronic Lymphocytic Leukemia criteria for chronic lymphocytic leukemia (CLL) (Hallek M. et al, Blood, 2008; 111(12):5446-5456; Cheson B. D. et al, J Clin Oncol, 2012; 30(23):2820-2822)), and the VIth International Workshop on Waldenström Macroglobulinemia response assessment for Waldenström Macroglobulinemia (WM) (Owen R. G. et al, Br J Haematol, 2013; 160(2):171-176). If the patient's response to treatment was assessed by PET and CTI/MRI, then the PET result was used for response endpoints; CT/MRI result was used for an assessment if PET result was not available for the assessment; CT/MRI was used for response endpoints if it was the only form of assessment available for the patient.
as §1

- IC50 [1]: ≤ 0.01 µM
Compound: CCOc1c(C(C)n2nc(C)c3c(N)ncnc32)cc(Cl)c(F)c1C1CNC(=O)C1 (single isomer, unassigned) [Example 1B, 4-{3-[1-(4-amino-3-methyl-1H-pyrazolo[3,4-d]pyrimidin-1-yl)ethyl]-5-chloro-2-ethoxy-6-fluorophenyl}pyrrolidin-2-one]

Compound: CCOc1c(C(C)n2nc(C)c3c(N)ncnc32)cc(Cl)c(F)c1C1CNC(=O)C1 (single isomer, unassigned) [Example 1C]
- sensitivity of Pfeiffer cancer cells to anti-proliferative effects in vitro [1]: sensitive

- IC50 [1]: ≤ 0.01 µM
Compound: CCOc1c(C(C)n2nc(C)c3c(N)ncnc32)cc(Cl)c(F)c1C1CNC(=O)O1 (single isomer, unassigned) [Example 2C, 5-{3-[1-(4-amino-3-methyl-1H-pyrazolo[3,4-d]pyrimidin-1-yl)ethyl]-5-chloro-2-ethoxy-6-fluorophenyl}-1,3-oxazolidin-2-one]

Compound: CCOc1c([C@H](C)n2nc(C)c3c(N)ncnc32)cc(Cl)c(F)c1[C@@H]1CNC(=O)C1.Cl [Compound 1C, (R)-4-(3-((S)-1-(4-amino-3-methyl-1H-pyrazolo[3,4-d]pyrimidin-1-yl)ethyl)-5-chloro-2-ethoxy-6-fluorophenyl)pyrrolidin-2-one hydrochloric acid salt]
- inhibition of pAKT in whole blood [2]: near-maximal inhibition
- Cmax above the IC90 for pAKT inhibition ([3]; 20 mg QD): 16 fold
- Ctrough above the IC90 for pAKT inhibition ([3]; 20 mg QD): 2 fold
- decrease in AUC with high fat meal ([3]; food effect, 12 patients): 10%
- decrease in Cmax with high fat meal compared with fasted state ([3]; food effect, 12 patients): 42%
- fed versus fasted geometric mean ratio for AUC ([3]; food effect, 12 patients): 0.90
- food effect analysis, timing of meals ([3]; human, in vivo): may be dosed without regard to timing of meals
- CR/CMR ([4]; CLL, N 6): 0 (0) n (%)
- Not evaluable/ not assessed ([4]; CLL, N 6): 1 (17) n (%)
- ORR ([4]; CLL, N 6): 2 (33 [4-78]) n (% [95% CI])
- PD/PMD ([4]; CLL, N 6): 1 (17) n (%)
- PR/PMR ([4]; CLL, N 6): 2 (33) n (%)
- ORR ([4]; DLBCL): 30%
- median duration of response ([4]; DLBCL): 13.5 months
- CR/CMR ([4]; DLBCL ABC, N 2): 0 (0) n (%)
- Not evaluable/ not assessed ([4]; DLBCL ABC, N 2): 0 n (%)
- ORR ([4]; DLBCL ABC, N 2): 1 (50 [1-99]) n (% [95% CI])
- PD/PMD ([4]; DLBCL ABC, N 2): 1 (50) n (%)
- PR/PMR ([4]; DLBCL ABC, N 2): 1 (50) n (%)
- CR/CMR ([4]; DLBCL GCB, N 19): 4 (21) n (%)
- Not evaluable/ not assessed ([4]; DLBCL GCB, N 19): 1 (5) n (%)
- ORR ([4]; DLBCL GCB, N 19): 6 (32 [13-57]) n (% [95% CI])
- PD/PMD ([4]; DLBCL GCB, N 19): 9 (47) n (%)
- PR/PMR ([4]; DLBCL GCB, N 19): 2 (11) n (%)
- deep responses (>75% decrease from baseline in target lesion size), patients ([4]; DLBCL, 20 evaluable): 10%
- CR/CMR ([4]; DLBCL, N 23): 4 (17) n (%)
- Not evaluable/ not assessed ([4]; DLBCL, N 23): 1 (4) n (%)
- ORR ([4]; DLBCL, N 23): 7 (30 [13-53]) n (% [95% CI])
- PD/PMD ([4]; DLBCL, N 23): 11 (48) n (%)
- PR/PMR ([4]; DLBCL, N 23): 3 (13) n (%)
- durable response ([4]; DLBCL): ~19 months
- ORR ([4]; FL): 71%
- median duration of response ([4]; FL): not reached
- deep responses (>75% decrease from baseline in target lesion size), patients ([4]; FL, 14 evaluable): 50%
- CR/CMR ([4]; FL, N 14): 3 (21) n (%)
- Not evaluable/ not assessed ([4]; FL, N 14): 1 (7) n (%)
- ORR ([4]; FL, N 14): 10 (71 [42-92]) n (% [95% CI])
- PD/PMD ([4]; FL, N 14): 2 (14) n (%)
- PR/PMR ([4]; FL, N 14): 7 (50) n (%)
- durable response ([4]; FL): ~17 months
- CR/CMR ([4]; HL, N 10): 0 (0) n (%)
- Not evaluable/ not assessed ([4]; HL, N 10): 1 (10) n (%)
- ORR ([4]; HL, N 10): 2 (20 [3-56]) n (% [95% CI])
- PD/PMD ([4]; HL, N 10): 4 (40) n (%)
- PR/PMR ([4]; HL, N 10): 2 (20) n (%)
- ORR ([4]; MCL): 67%
- median duration of response ([4]; MCL): not reached
- deep responses (>75% decrease from baseline in target lesion size), patients ([4]; MCL, 8 evaluable): 38%
- CR/CMR ([4]; MCL, N 9): 4 (44) n (%)
- Not evaluable/ not assessed ([4]; MCL, N 9): 1 (11) n (%)
- ORR ([4]; MCL, N 9): 6 (67 [30-93]) n (% [95% CI])
- PD/PMD ([4]; MCL, N 9): 0 (0) n (%)
- PR/PMR ([4]; MCL, N 9): 2 (22) n (%)
- durable response ([4]; MCL): ≥ 14 months
- ORR ([4]; MZL): 78%
- median duration of response ([4]; MZL): 4.4 months
- deep responses (>75% decrease from baseline in target lesion size), patients ([4]; MZL, 7 evaluable): 57%
- responses occurring by the first assessment (~9 weeks) ([4]; MZL, FL, MCL, DLBCL): 93%
- CR/CMR ([4]; MZL, N 9): 3 (33) n (%)
- Not evaluable/ not assessed ([4]; MZL, N 9): 0 n (%)
- ORR ([4]; MZL, N 9): 7 (78 [40-97]) n (% [95% CI])
- PD/PMD ([4]; MZL, N 9): 1 (11) n (%)
- PR/PMR ([4]; MZL, N 9): 4 (44) n (%)
- durable response ([4]; MZL): ~10 months
- durable responses among patients receiving QW dosing ([4]; QW dosing): > 6 months
- CR/CMR ([4]; WM, N 1): 0 (0) n (%)
- Not evaluable/ not assessed ([4]; WM, N 1): 0 n (%)
- ORR ([4]; WM, N 1): 1 (100 [3-100]) n (% [95% CI])
- PD/PMD ([4]; WM, N 1): 0 (0) n (%)
- PR/PMR ([4]; WM, N 1): 1 (100) n (%)
- patients who achieved an objective response ([4]; all patients with NHL administered 20 mg QD at time of regimen change): 11 patients
- objective responses at the first disease assessment ([4]; of 11 patients with NHL administered 20 mg QD): 10
- objective responses in patients previously treated with ibrutinib ([4]; of the 4 patients with MCL): 2 patients
- deep responses, patients ([4]; relapsed or refractory B-cell NHL, 10 mg QD to 45 mg QD): > 30%
